{"source": "patent US20190150437A1", "about": "“USE OF SESQUITERPENES AND THEIR ANALOGS AS GREEN INSECTICIDES FOR CONTROLLING DISEASE VECTORS AND PLANT PESTS” (Ohio State Innovation Foundation, priority 2016, published 2019)", "key": {"[1]": {"system": "C. pipiens adult females", "assay": "Adult female mosquito toxicity, applied to thoracic cuticle, 24 h", "type": "in vivo, Culex pipiens", "conditions": "24 h after applying to thoracic cuticle, in acetone", "method": "(§1) The concentration/dose-toxicity relationships for Ae. aegypti from FIG. 4 are superimposed to facilitate comparisons.\n(§2) Each compound of cinnamodial (CDIAL), cinnafragrin A (CM18) and cinnamosmolide (CMOS) were isolated form the barks of the Madagascan plants Cinnamosma fragrans, Cinnamosma macrocarpa and Cinnamosma madagascariensis. Each was dissolved in 100% acetone and applied directly to the cuticle of adult female mosquitoes (Aedes aegypti, Anopheles gambiae, and Culex pipiens) or 3rd instar nymph soybean aphids (Aphis glycines). The bark extract and the isolated compounds was toxic to larval and adult female mosquitoes within 24 hr in a concentration/dose dependent manner (FIGS. 4 and 5). Among the isolated compounds."}, "[2]": {"system": "A. aegypti adult females", "assay": "Adult female mosquito toxicity, applied to thoracic cuticle, 24 h", "type": "in vivo, Aedes aegypti", "conditions": "for Adult female mosquitoes ED50 in μg/mg mosquito (95% CI), A. aegypti: adult females, 24 h after applying to thoracic cuticle, in acetone", "method": "(§3) A,C) Concentration-toxicity relationships in 1st instar larvae 24 h after adding CINEX or indicated compound to the rearing water. B,D) Dose-toxicity relationships in adult females 24 h after applying CINEX or indicated compound to the thoracic cuticle. CDIAL=OSU-1.\nas §2"}, "[3]": {"system": "C. pipiens larvae", "assay": "Larval mosquito toxicity, compound added to rearing water, 24 h", "type": "in vivo, Culex pipiens", "conditions": "24 h after adding to rearing water", "method": "as §1, §2"}, "[4]": {"system": "A. aegypti 1st instar larvae", "assay": "Larval mosquito toxicity, compound added to rearing water, 24 h", "type": "in vivo, Aedes aegypti", "conditions": "for Larval mosquitoes EC50 in ppm (95% CI), A. aegypti: larvae, 24 h after adding to rearing water", "method": "as §3, §2"}, "[5]": {"system": "Alpha-glucosidase (EC 3.2.1.20)", "conditions": "reported in references 2 and 3; cited from earlier work"}, "[6]": {"system": "Alpha-glucosidase (EC 3.2.1.20)", "assay": "Alpha-Glucosidase Inhibition Assay", "type": "biochemical", "conditions": "for Alpha-glucosidase inhibitory activity, in words / alpha-Glucosidase inhibition (%): 0.1 mg/mL final concentration", "method": "Alpha-Glucosidase Inhibition Assay.\nThe assay was performed according to the 126 Journal of Natural Products, 2008. Vol. 71. No. 1 Notes\nmethod described by Oki and co-workers, with slight modifications.^13 alpha-Glucosidase was purchased from Toyobo Co., Ltd. (Osaka. Japan). The enzyme solution was prepared by dissolving 0.6 U/mL of Alpha-glucosidase in 100 mM phosphate buffer (pH 7) containing 2 g/L bovine serum albumin and 0.2 g/L NaN3. p-Nitrophenyl-R-D-glucopyranoside (5 mM) in the same buffer solution (pH 7) was used as a substrate solution. The enzyme solution (50 μL) and the test compounds (10 μL), dissolved in DMSO to a final concentration of 0.1 mg/mL, were mixed in each well of the microliter 96-well culture plates and measured spectrophotometrically (absorbance 405 nm) at zero time, using a microplate reader (Bio-Rad model 550 microplate reader). The mixture was preincubated for 5 min at room temperature before the addition of substrate solution ([…]) and followed by a 5 min incubation at room temperature. The increase in absorbance from zero time was measured. The inhibitory activity was expressed as […] minus the relative absorbance difference (%) of test compounds to absorbance change of the control where the test solution was replaced by DMSO. 1-Deoxynojirimycin (Wako Pure Chemical Industries, Ltd.) 0.3 mM in DMSO was used as a positive control."}, "[7]": {"system": "A. gambiae adult females", "assay": "Adult female mosquito toxicity, applied to thoracic cuticle, 24 h", "type": "in vivo, Anopheles gambiae", "conditions": "24 h after applying to thoracic cuticle, in acetone", "method": "as §1, §2"}, "[8]": {"system": "A. gambiae larvae", "assay": "Larval mosquito toxicity, compound added to rearing water, 24 h", "type": "in vivo, Anopheles gambiae", "conditions": "24 h after adding to rearing water", "method": "as §1, §2"}, "[9]": {"system": "soybean aphid Aphis glycines", "assay": "Soybean aphid toxicity, applied to cuticle of 3rd instar nymphs, 24 h", "type": "in vivo", "conditions": "for ED50 in aphids: 3rd instar nymphs, 24 h after application to cuticle", "method": "Dose-toxicity relationships in 3rd instar nymphs 24 h after adding CINEX or indicated compound to the thoracic cuticle. CDIAL=OSU-1.\nas §2"}, "[10]": {"system": "adult female Aedes aegpti", "assay": "Blood-feeding bioassay (mosquito repellency, membrane feeder)", "type": "in vivo, Aedes aegypti", "conditions": "20.8 μg/cm^2 on nylon fabric covering the blood source, 1 h", "text": "FIG. 8 is a graph showing repellent efficacy of CINEX and CDIAL (OSU-1) compared to DEET, an industry standard. Values are means±SEM; N=31, 9, 5, and 15 respectively for Control, DEET, CINEX, and CDIAL. Lower-case letters indicate statistical categorization of the means as determined by a one-way ANOVA with a Newman-Keuls posttest (P<0.05).\nWe used a blood-feeding bioassay to test the efficacy of OSU-1 (CDIAL) and the C. fragrans bark extract (CINEX) to repel mosquitoes from feeding on a blood source. In brief, cages of 20 mosquitoes (adult female Aedes aegpti) were starved for 24 h before being allowed to feed on a membrane feeder (Hemotek) containing defibrinated rabbit blood. After 1 h, the mosquitoes were immobilized on ice and the number of individuals with blood in their abdomen was counted. The membrane feeder maintains the blood at a constant temperature of 37° C. (human body temperature) and is covered with a collagen membrane that mimics human skin. Mosquitoes pierce through the collagen membrane with their proboscis to obtain the blood. […] Lower-case letters indicate statistical categorization of the means as determined by a one-way ANOVA with a Newman-Keuls posttest (P<0.05)."}}, "note": "“Also recorded” adds a separate entry of the source. Marks after values point to notes of the source that are not given here.", "data": [{"compound": "CC(=O)O[C@@H]1C=C(C=O)[C@@](O)(C=O)[C@@]2(C)CCCC(C)(C)C12", "note": "(stereo partly shown) [CDIAL, cinnamodial]", "values": [{"measurement": "Adult female mosquitoes ED50 in μg/mg mosquito (95% CI), C. pipiens", "setting": "[1]", "result": "0.17† μg/mg mosquito"}, {"measurement": "Adult female mosquitoes ED50 in μg/mg mosquito (95% CI), A. aegypti", "setting": "[2]", "result": 0.09, "unit": "μg/mg mosquito"}, {"measurement": "Toxicity to adult female mosquitoes, in words", "setting": "[2]; within 24 hr, dose dependent", "result": "most potent and efficacious"}, {"measurement": "Larval mosquitoes EC50 in ppm (95% CI), C. pipiens", "setting": "[3]", "result": "13.3† ppm"}, {"measurement": "Larval mosquitoes EC50 in ppm (95% CI), A. aegypti", "setting": "[4]", "result": 21.6, "unit": "ppm"}, {"measurement": "Toxicity to larval mosquitoes, in words", "setting": "[4]; within 24 hr, concentration dependent", "result": "most potent and efficacious"}, {"measurement": "Alpha-glucosidase inhibition, in words, from earlier papers", "setting": "[5]", "result": "strong inhibition"}, {"measurement": "Alpha-glucosidase inhibitory activity, in words", "setting": "[6]", "result": "most potent activity"}, {"measurement": "alpha-Glucosidase inhibition (%)", "setting": "[6]", "result": 83.7, "unit": "%"}, {"measurement": "Adult female mosquitoes ED50 in μg/mg mosquito (95% CI), A. gambiae", "setting": "[7]", "result": "0.05† μg/mg mosquito"}, {"measurement": "Larval mosquitoes EC50 in ppm (95% CI), A. gambiae", "setting": "[8]", "result": 29.8, "unit": "ppm"}, {"measurement": "ED50 in aphids", "setting": "[9]", "result": 0.38, "unit": "μg/aphid"}, {"measurement": "Toxicity to aphids, in words", "setting": "[9]; within 24 h of application", "result": "most potent"}, {"measurement": "Percentage of mosquitoes feeding on a blood source, in words", "setting": "[10]", "result": "significantly reduced"}]}, {"compound": "CC(=O)O[C@@H]1C=C(C2OC3OC(O)C4=C[C@@H](OC(C)=O)C5C(C)(C)CCC[C@]5(C)[C@]43O2)[C@@](O)(C=O)[C@@]2(C)CCCC(C)(C)C12", "note": "(stereo partly shown) [CM18, cinnafragrin A]", "values": [{"measurement": "Adult female mosquitoes ED50 in μg/mg mosquito (95% CI), A. aegypti", "setting": "[2]", "result": "2.03* μg/mg mosquito"}, {"measurement": "Larval mosquitoes EC50 in ppm (95% CI), A. aegypti", "setting": "[4]", "result": 22.6, "unit": "ppm"}, {"measurement": "ED50 in aphids", "setting": "[9]", "result": 1.7, "unit": "μg/aphid"}]}, {"compound": "CC1(C)CCC[C@@]2(C)[C@H]1[C@H](O)C=C1C(=O)OC[C@]12O", "note": "[Compound 3, pereniporin B]", "values": [{"measurement": "alpha-Glucosidase inhibition (%)", "setting": "[6]", "result": 7.2, "unit": "%"}]}, {"compound": "CC(=O)O[C@@H]1[C@@H](O)C2=C(C(=O)OC2)[C@@]2(C)CCCC(C)(C)[C@H]12", "note": "[Compound 4, ugandensolide]", "values": [{"measurement": "Alpha-glucosidase inhibitory activity, in words", "setting": "[6]", "result": "moderate effects; also recorded: moderate activity"}, {"measurement": "alpha-Glucosidase inhibition (%)", "setting": "[6]", "result": 46.2, "unit": "%"}]}, {"compound": "CC1(C)CCC[C@]2(C)[C@H](C=O)C(C=O)=CC[C@@H]12", "note": "[isopolygodial, reference compound]", "values": [{"measurement": "Alpha-glucosidase inhibition, in words, from earlier papers", "setting": "[5]", "result": "did not show any activity"}]}, {"compound": "OC[C@H]1NC[C@H](O)[C@@H](O)[C@@H]1O", "note": "[1-deoxynojirimycin, reference compound]", "values": [{"measurement": "alpha-Glucosidase inhibition (%), positive control", "setting": "[6]; 0.3 mM in DMSO, positive control", "result": 100, "unit": "%"}]}, {"compound": "cinnamadin [Compound 1]", "values": [{"measurement": "Alpha-glucosidase inhibitory activity, in words", "setting": "[6]", "result": "moderate effects"}, {"measurement": "alpha-Glucosidase inhibition (%)", "setting": "[6]", "result": 14.9, "unit": "%"}]}, {"compound": "CC1(C)CCC[C@]2(C)[C@@H](C=O)C(C=O)=CC[C@@H]12", "note": "[Compound 5, polygodial]", "values": [{"measurement": "Alpha-glucosidase inhibitory activity, in words", "setting": "[6]", "result": "only slight activity; also recorded: did not show any activity"}, {"measurement": "alpha-Glucosidase inhibition (%)", "setting": "[6]", "result": 2.1, "unit": "%"}]}, {"compound": "COC1OC(OC)C2(O)C1=CC(OC(C)=O)C1C(C)(C)CCCC12C", "note": "(stereo not shown) [Compound 2, cinnamodial 11R,12-dimethyl acetal]", "values": [{"measurement": "alpha-Glucosidase inhibition (%)", "setting": "[6]", "result": "not active"}]}, {"compound": "CC(=O)O[C@@H]1C=C2C(=O)OCC2(O)[C@@]2(C)CCCC(C)(C)C12", "note": "(stereo partly shown) [CMOS, cinnamosmolide]", "values": [{"measurement": "Adult female mosquitoes ED50 in μg/mg mosquito (95% CI), A. aegypti", "setting": "[2]", "result": "3.94* μg/mg mosquito"}, {"measurement": "Larval mosquitoes EC50 in ppm (95% CI), A. aegypti", "setting": "[4]", "result": "134.4* ppm"}, {"measurement": "alpha-Glucosidase inhibition (%)", "setting": "[6]", "result": 20.0, "unit": "%"}, {"measurement": "ED50 in aphids", "setting": "[9]", "result": 2.5, "unit": "μg/aphid"}]}]}
